Assay results: PubChem BioAssay AID2060502 (Molecular Pharmacology Branch, DTP, NCI, 2025)

Tested on: 885724-159-R-J1-PDC complex spheroid viability
Test: Anticancer human tumor 885724-159-R-J1-PDC patient-derived pancreatic adenocarcinoma cell line growth inhibition [GQUAD]
Conditions: for IC50: curve of first compound; for viability, T/C: stronger effect = lower value
How it was run: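 Viability of tumor cells grown as complex spheroids with endothelial and stromal cells, exposed to drug combinations. Top concentration at or near clinical Cmax (else 10 microM), diluted in half-log increments.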

[1] = second compound 0.0316 µM, first compound 0.0316 µM
[2] = second compound 0.0316 µM, first compound 0.1 µM
[3] = second compound 0.0316 µM, first compound 0.316 µM
[4] = second compound 0.0316 µM, first compound 1 µM
[5] = second compound 0.0316 µM, first compound 3.16 µM
[6] = second compound 0.0316 µM, first compound 10 µM
[7] = second compound 0.1 µM, first compound 0.0316 µM
[8] = second compound 0.1 µM, first compound 0.1 µM
[9] = second compound 0.1 µM, first compound 0.316 µM
[10] = second compound 0.1 µM, first compound 1 µM
[11] = second compound 0.1 µM, first compound 3.16 µM
[12] = second compound 0.1 µM, first compound 10 µM
[13] = second compound 0.316 µM, first compound 0.0316 µM
[14] = second compound 0.316 µM, first compound 0.1 µM
[15] = second compound 0.316 µM, first compound 0.316 µM
[16] = second compound 0.316 µM, first compound 1 µM
[17] = second compound 0.316 µM, first compound 3.16 µM
[18] = second compound 0.316 µM, first compound 10 µM
[19] = second compound 1 µM, first compound 0.0316 µM
[20] = second compound 1 µM, first compound 0.1 µM
[21] = second compound 1 µM, first compound 0.316 µM
[22] = second compound 1 µM, first compound 1 µM
[23] = second compound 1 µM, first compound 3.16 µM
[24] = second compound 1 µM, first compound 10 µM
[25] = second compound 3.16 µM, first compound 0.0316 µM
[26] = second compound 3.16 µM, first compound 0.1 µM
[27] = second compound 3.16 µM, first compound 0.316 µM
[28] = second compound 3.16 µM, first compound 1 µM
[29] = second compound 3.16 µM, first compound 3.16 µM
[30] = second compound 3.16 µM, first compound 10 µM
[31] = second compound 10 µM, first compound 0.0316 µM
[32] = second compound 10 µM, first compound 0.1 µM
[33] = second compound 10 µM, first compound 0.316 µM
[34] = second compound 10 µM, first compound 1 µM
[35] = second compound 10 µM, first compound 3.16 µM
[36] = second compound 10 µM, first compound 10 µM
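Note: spheroids exposed to agents for seven days before readout.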
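Throughout, for viability, T/C: percent of vehicle control viability where 100% = DMSO wells.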

C=CC(=O)N1CCN(c2nc(=O)n(-c3c(C)ccnc3C(C)C)c3nc(-c4c(O)cccc4F)c(F)cc23)C(C)C1 (stereo not drawn) + CN(C)c1ccc(Nc2c3ccc(NC(=O)CCN4CCCC4)cc3nc3cc(NC(=O)CCN4CCCC4)ccc23)cc1 was tested, and the IC50 (second compound 0.0316 µM) was > 10000 nM, the IC50 (second compound 0.1 µM) was > 10000 nM and the IC50 (second compound 0.316 µM) was > 10000 nM. The IC50 (second compound 1 µM) was > 10000 nM, the IC50 (second compound 3.16 µM) was > 10000 nM and the IC50 (second compound 10 µM) was > 10000 nM. The viability, T/C [1] was 98.5%, the viability, T/C [2] was 101% and the viability, T/C [3] was 96.2%. For the same compound, the viability, T/C [4] was 93.4%, the viability, T/C [5] was 103% and the viability, T/C [6] was 95.6%. It also gave a viability, T/C [7] of 101%, a viability, T/C [8] of 106% and a viability, T/C [9] of 96.5%. For the same compound, the viability, T/C [10] was 98.5%, the viability, T/C [11] was 107% and the viability, T/C [12] was 87.5%. The viability, T/C [13] was 90.5%, the viability, T/C [14] was 95.3% and the viability, T/C [15] was 82.6%. It also gave a viability, T/C [16] of 82.5%, a viability, T/C [17] of 103% and a viability, T/C [18] of 89.2%. It also gave a viability, T/C [19] of 86.2%, a viability, T/C [20] of 79.4% and a viability, T/C [21] of 70.6%. For the same compound, the viability, T/C [22] was 79.3%, the viability, T/C [23] was 85.3% and the viability, T/C [24] was 82.3%. It also gave a viability, T/C [25] of 67%, a viability, T/C [26] of 74.1% and a viability, T/C [27] of 84.4%. The viability, T/C [28] was 69.4%, the viability, T/C [29] was 83.8% and the viability, T/C [30] was 79.6%. It also gave a viability, T/C [31] of 64.8%, a viability, T/C [32] of 76% and a viability, T/C [33] of 85.2%. It also gave a viability, T/C [34] of 84.6%, a viability, T/C [35] of 87.6% and a viability, T/C [36] of 73.3%.

CC(C)n1c(=O)n(C)c2cnc3cc(F)c(-c4ccc(OCCCN5CCCCC5)nc4)cc3c21 + CN(C)c1ccc(Nc2c3ccc(NC(=O)CCN4CCCC4)cc3nc3cc(NC(=O)CCN4CCCC4)ccc23)cc1 was tested, and the IC50 (second compound 0.0316 µM) was > 10000 nM, the IC50 (second compound 0.1 µM) was > 10000 nM and the IC50 (second compound 0.316 µM) was > 10000 nM. The IC50 (second compound 1 µM) was > 10000 nM, the IC50 (second compound 3.16 µM) was 7970 nM and the IC50 (second compound 10 µM) was 1200 nM. It also gave a viability, T/C [1] of 105%, a viability, T/C [2] of 111% and a viability, T/C [3] of 100%. The viability, T/C [4] was 91.7%, the viability, T/C [5] was 97% and the viability, T/C [6] was 56%. The viability, T/C [7] was 109%, the viability, T/C [8] was 107% and the viability, T/C [9] was 112%. For the same compound, the viability, T/C [10] was 101%, the viability, T/C [11] was 88.2% and the viability, T/C [12] was 68.2%. It also gave a viability, T/C [13] of 107%, a viability, T/C [14] of 101% and a viability, T/C [15] of 92.2%. It also gave a viability, T/C [16] of 91.3%, a viability, T/C [17] of 85.2% and a viability, T/C [18] of 56.2%. It also gave a viability, T/C [19] of 92.6%, a viability, T/C [20] of 83.4% and a viability, T/C [21] of 101%. The viability, T/C [22] was 82.7%, the viability, T/C [23] was 74.5% and the viability, T/C [24] was 54.3%. For the same compound, the viability, T/C [25] was 83.7%, the viability, T/C [26] was 80.2% and the viability, T/C [27] was 86.4%. For the same compound, the viability, T/C [28] was 64.1%, the viability, T/C [29] was 66.6% and the viability, T/C [30] was 46%. The viability, T/C [31] was 78.7%, the viability, T/C [32] was 84.5% and the viability, T/C [33] was 60.3%. For the same compound, the viability, T/C [34] was 55.1%, the viability, T/C [35] was 33.3% and the viability, T/C [36] was 7.2%.

In the case of CC1COCCN1c1cc(-c2ccnn2C)c2ccnc(-c3ccn[nH]3)c2n1 (stereo not drawn) + CN(C)c1ccc(Nc2c3ccc(NC(=O)CCN4CCCC4)cc3nc3cc(NC(=O)CCN4CCCC4)ccc23)cc1, the IC50 (second compound 0.0316 µM) is reported as 7550 nM, the IC50 (second compound 0.1 µM) is reported as 8810 nM and the IC50 (second compound 0.316 µM) is reported as > 10000 nM. The IC50 (second compound 1 µM) was 2120 nM, the IC50 (second compound 3.16 µM) was 1680 nM and the IC50 (second compound 10 µM) was 1280 nM. The viability, T/C [1] was 91.5%, the viability, T/C [2] was 85.6% and the viability, T/C [3] was 71.7%. The viability, T/C [4] was 65%, the viability, T/C [5] was 53.7% and the viability, T/C [6] was 48.7%. The viability, T/C [7] was 99.8%, the viability, T/C [8] was 87% and the viability, T/C [9] was 70.9%. The viability, T/C [10] was 67%, the viability, T/C [11] was 48.1% and the viability, T/C [12] was 51.9%. For the same compound, the viability, T/C [13] was 95.7%, the viability, T/C [14] was 76.4% and the viability, T/C [15] was 86.9%. For the same compound, the viability, T/C [16] was 64.5%, the viability, T/C [17] was 52.7% and the viability, T/C [18] was 48.6%. The viability, T/C [19] was 86.8%, the viability, T/C [20] was 68.5% and the viability, T/C [21] was 63.8%. For the same compound, the viability, T/C [22] was 53.6%, the viability, T/C [23] was 50% and the viability, T/C [24] was 42.1%. The viability, T/C [25] was 87.5%, the viability, T/C [26] was 74.8% and the viability, T/C [27] was 72.7%. It also gave a viability, T/C [28] of 54.9%, a viability, T/C [29] of 41.8% and a viability, T/C [30] of 39.5%. For the same compound, the viability, T/C [31] was 74.2%, the viability, T/C [32] was 72.3% and the viability, T/C [33] was 52.8%. For the same compound, the viability, T/C [34] was 59.5%, the viability, T/C [35] was 39% and the viability, T/C [36] was 36.2%.

CC1COCCN1c1cc(C2(O)CC3CCC(C2)O3)c2cnn(-c3ccn[nH]3)c2n1 (stereo not drawn) + CN(C)c1ccc(Nc2c3ccc(NC(=O)CCN4CCCC4)cc3nc3cc(NC(=O)CCN4CCCC4)ccc23)cc1 gave an IC50 (second compound 0.0316 µM) of 1480 nM, an IC50 (second compound 0.1 µM) of 1400 nM and an IC50 (second compound 0.316 µM) of 495 nM. It also gave an IC50 (second compound 1 µM) of 880 nM, an IC50 (second compound 3.16 µM) of 286 nM and an IC50 (second compound 10 µM) of 449 nM. It also gave a viability, T/C [1] of 89%, a viability, T/C [2] of 74% and a viability, T/C [3] of 69.3%. It also gave a viability, T/C [4] of 53.1%, a viability, T/C [5] of 41.6% and a viability, T/C [6] of 33.9%. It also gave a viability, T/C [7] of 95.4%, a viability, T/C [8] of 83.8% and a viability, T/C [9] of 61.5%. It also gave a viability, T/C [10] of 55.8%, a viability, T/C [11] of 42.8% and a viability, T/C [12] of 36.8%. For the same compound, the viability, T/C [13] was 80.9%, the viability, T/C [14] was 83.5% and the viability, T/C [15] was 55.4%. It also gave a viability, T/C [16] of 46.4%, a viability, T/C [17] of 44.9% and a viability, T/C [18] of 33%. The viability, T/C [19] was 74.9%, the viability, T/C [20] was 62.5% and the viability, T/C [21] was 65.1%. For the same compound, the viability, T/C [22] was 45.6%, the viability, T/C [23] was 39.9% and the viability, T/C [24] was 32.6%. For the same compound, the viability, T/C [25] was 80.9%, the viability, T/C [26] was 65.4% and the viability, T/C [27] was 47.6%. For the same compound, the viability, T/C [28] was 38.4%, the viability, T/C [29] was 33.4% and the viability, T/C [30] was 29.5%. The viability, T/C [31] was 70.2%, the viability, T/C [32] was 66.7% and the viability, T/C [33] was 49.6%. For the same compound, the viability, T/C [34] was 42.4%, the viability, T/C [35] was 35.6% and the viability, T/C [36] was 23.3%.
